# Source: patent US9187471B2, “Pyrido [4,3-b] indole and pyrido [3,4-b] indole derivatives and methods of use” (Medivation Technologies, Inc., priority 2010, dated 2015)
# Legend:
# [1] = molecular target: T1, human recombinant serotonin (5-Hydroxytryptamine) 5-HT6 receptor (Homo sapiens, UniProt P50406); assay: Serotonin 5-HT6 radioligand binding ([3H]LSD); conditions: compound at 0.1 μM; read-out: Inhibition of ligand binding, Serotonin 5-HT6 (percent inhibition of specific binding)
# T1 construct: expressed in transfected cells; host or cells: HeLa
# T1 sequence (P50406 whole entry): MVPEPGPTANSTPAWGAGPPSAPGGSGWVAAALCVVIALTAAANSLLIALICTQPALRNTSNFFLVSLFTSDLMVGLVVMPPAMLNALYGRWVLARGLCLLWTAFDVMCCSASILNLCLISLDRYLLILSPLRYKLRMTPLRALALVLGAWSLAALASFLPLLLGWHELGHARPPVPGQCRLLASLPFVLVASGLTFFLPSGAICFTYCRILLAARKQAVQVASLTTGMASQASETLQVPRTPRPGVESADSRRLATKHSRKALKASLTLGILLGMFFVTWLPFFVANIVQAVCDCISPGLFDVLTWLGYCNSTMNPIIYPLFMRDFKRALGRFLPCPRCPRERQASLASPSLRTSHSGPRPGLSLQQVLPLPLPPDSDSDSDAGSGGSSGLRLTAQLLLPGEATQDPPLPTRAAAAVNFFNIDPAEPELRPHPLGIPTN
# From the text: Receptor proteins were filtered and washed, the filters were then counted to determine [3H]LSD specifically bound.
# [2] = molecular target: T2, human recombinant adrenergic α2C receptor (Homo sapiens, UniProt P18825); assay: Adrenergic α2C radioligand binding ([3H]MK-912); conditions: read-out: Adrenergic (0.1 μM) a2C, percent inhibition of specific binding; compound at 0.1 μM; 1 nM [3H]MK-912
# T2 construct: expressed in transfected cells; host or cells: insect Sf9 cells
# T2 sequence (P18825 1-462): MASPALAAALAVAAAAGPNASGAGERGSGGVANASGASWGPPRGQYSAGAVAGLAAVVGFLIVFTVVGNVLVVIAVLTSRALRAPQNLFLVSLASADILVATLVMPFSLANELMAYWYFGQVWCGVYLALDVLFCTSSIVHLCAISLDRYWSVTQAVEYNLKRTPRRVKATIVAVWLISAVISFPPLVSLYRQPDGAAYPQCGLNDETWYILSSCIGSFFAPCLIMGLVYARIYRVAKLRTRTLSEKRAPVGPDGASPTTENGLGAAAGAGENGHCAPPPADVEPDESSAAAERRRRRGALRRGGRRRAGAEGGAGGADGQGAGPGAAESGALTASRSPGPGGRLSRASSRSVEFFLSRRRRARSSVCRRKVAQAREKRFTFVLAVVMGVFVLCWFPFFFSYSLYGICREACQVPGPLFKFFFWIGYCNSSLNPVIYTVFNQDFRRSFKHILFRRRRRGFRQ
# How it was run: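 Membranes from Sf9 cells expressing the human receptor, in 50 mM Tris-HCl pH 7.4 with 12.5 mM MgCl2 and 2 mM EDTA, incubated with compound and 1 nM [3H]MK-912 for 60 min at 25 °C. Non-specific binding defined with 10 μM WB-4101. Filter-bound radioactivity counted; percent inhibition of specific binding reported.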
# [3] = molecular target: T3, rat adrenergic α1A receptor (Rattus norvegicus, UniProt P43140); assay: Adrenergic α1A radioligand binding ([3H]Prazosin); conditions: read-out: Adrenergic (0.1 μM) a1A, percent inhibition of specific binding; compound at 0.1 μM; 0.25 nM [3H]Prazosin
# T3 construct: rat adrenergic α1A receptor obtained from Wistar Rat submaxillary glands; from tissue; host or cells: Wistar rat submaxillary glands
# T3 sequence (P43140 1-466): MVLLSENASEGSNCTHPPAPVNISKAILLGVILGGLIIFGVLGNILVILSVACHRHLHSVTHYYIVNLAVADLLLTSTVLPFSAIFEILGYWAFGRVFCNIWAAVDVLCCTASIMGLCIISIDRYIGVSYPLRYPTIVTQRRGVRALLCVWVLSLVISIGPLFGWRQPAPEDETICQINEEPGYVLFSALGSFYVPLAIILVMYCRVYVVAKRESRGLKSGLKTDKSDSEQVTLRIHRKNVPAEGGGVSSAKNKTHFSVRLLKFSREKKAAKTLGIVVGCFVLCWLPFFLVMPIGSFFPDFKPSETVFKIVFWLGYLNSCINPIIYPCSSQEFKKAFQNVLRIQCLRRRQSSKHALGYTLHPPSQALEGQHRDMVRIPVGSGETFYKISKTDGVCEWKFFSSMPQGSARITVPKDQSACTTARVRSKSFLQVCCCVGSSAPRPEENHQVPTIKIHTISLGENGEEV
# How it was run: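 Wistar rat submaxillary gland receptor in 50 mM Tris-HCl pH 7.4 with 0.5 mM EDTA, incubated with compound and 0.25 nM [3H]Prazosin for 60 min at 25 °C.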
# [4] = molecular target: T4, human recombinant histamine H1 receptor (Homo sapiens, UniProt P35367); assay: Histamine H1 radioligand binding ([3H]Pyrilamine); conditions: read-out: Histamine H1 Binding (1 μM), percent inhibition of specific binding; compound at 1 μM; 1.2 nM [3H]Pyrilamine
# T4 construct: expressed in transfected cells; host or cells: CHO-K1
# T4 sequence (P35367 whole entry): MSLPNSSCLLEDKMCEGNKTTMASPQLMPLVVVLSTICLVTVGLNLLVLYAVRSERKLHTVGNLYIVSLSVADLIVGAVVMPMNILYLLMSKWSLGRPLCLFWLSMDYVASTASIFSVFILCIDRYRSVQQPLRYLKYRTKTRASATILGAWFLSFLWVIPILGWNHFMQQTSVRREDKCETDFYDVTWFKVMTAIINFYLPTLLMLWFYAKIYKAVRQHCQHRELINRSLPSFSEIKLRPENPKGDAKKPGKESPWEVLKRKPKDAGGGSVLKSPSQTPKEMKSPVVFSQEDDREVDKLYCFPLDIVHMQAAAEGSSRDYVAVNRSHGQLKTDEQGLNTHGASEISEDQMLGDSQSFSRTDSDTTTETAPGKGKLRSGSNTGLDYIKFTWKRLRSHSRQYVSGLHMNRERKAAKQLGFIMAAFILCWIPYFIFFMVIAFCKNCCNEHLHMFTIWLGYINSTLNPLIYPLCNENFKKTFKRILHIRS
# How it was run: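 Results expressed as percent inhibition of specific [3H]pyrilamine binding, counted on filters after washing. Receptor source: CHO-K1 cells expressing recombinant human H1, in modified Tris-HCl buffer (50 mM, pH 7.4; 2 mM MgCl2, 100 mM NaCl, 250 mM sucrose). 1 μM pyrilamine defined non-specific binding.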
# [5] = molecular target: T5, human recombinant serotonin (5-Hydroxytryptamine) 5-HT2C receptor (Homo sapiens, UniProt P28335); assay: Serotonin 5-HT2C radioligand binding ([3H]Mesulergine); conditions: compound at 0.1 μM; read-out: Inhibition of ligand binding, Serotonin 5-HT2C (percent inhibition of specific binding)
# T5 construct: expressed in transfected cells; host or cells: CHO-K1
# T5 sequence (P28335 33-458): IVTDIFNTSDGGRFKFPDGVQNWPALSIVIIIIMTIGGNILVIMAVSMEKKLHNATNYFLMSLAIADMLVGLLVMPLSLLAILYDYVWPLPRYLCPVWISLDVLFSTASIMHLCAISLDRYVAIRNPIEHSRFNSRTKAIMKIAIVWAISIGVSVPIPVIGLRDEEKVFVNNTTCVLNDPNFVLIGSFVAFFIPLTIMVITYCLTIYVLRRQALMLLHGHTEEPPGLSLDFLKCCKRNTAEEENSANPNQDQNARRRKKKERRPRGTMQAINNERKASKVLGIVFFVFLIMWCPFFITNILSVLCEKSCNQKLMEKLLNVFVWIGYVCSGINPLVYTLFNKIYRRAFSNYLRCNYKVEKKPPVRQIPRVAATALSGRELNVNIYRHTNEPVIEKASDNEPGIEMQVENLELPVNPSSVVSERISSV
# Method: Compounds of the invention were incubated with 1 nM [^3H]Mesulergine for 60 min at 25° C. Non-specific binding was estimated in the presence of 1 μM Mianserin. Receptor proteins were filtered and washed, the filters were then counted to determine [^3H]Mesulergine specifically bound.
compound,measurement,setting,value
"Cc1cc(C)c2c(c1)c1c(n2-c2cccc(-c3ccncc3)c2)CCN(C)C1 [Compound 57, 2,6,8-trimethyl-5-(3-(pyridin-4-yl)phenyl)-2,3,4,5-tetrahydro-1H-pyrido[4,3-b]indole]",inhibition at 0.1 µM,[1],15%
same,inhibition at 0.1 µM,[2],3%
same,inhibition at 0.1 µM,[3],3%
same,inhibition at 1 µM,[4],45%
same,inhibition at 0.1 µM,[5],28%
"Cc1ccc2c(c1)c1c(n2-c2cccc(-c3ccc(C)nc3)c2)CCN(C)C1 [Compound 60, 2,8-dimethyl-5-(3-(6-methylpyridin-3-yl)phenyl)-2,3,4,5-tetrahydro-1H-pyrido[4,3-b]indole]",inhibition at 0.1 µM,[1],3%
same,inhibition at 0.1 µM,[2],21%
same,inhibition at 0.1 µM,[3],-2%
same,inhibition at 1 µM,[4],32%
same,inhibition at 0.1 µM,[5],53%
"Cc1ccc2c(c1)c1c(n2-c2ccccc2-c2ccc3c(ccn3C)c2)CCN(C)C1 [Compound No. 85, 2,8-dimethyl-5-(2-(1-methyl-1H-indol-5-yl)phenyl)-2,3,4,5-tetrahydro-1H-pyrido[4,3-b]indole]",inhibition at 0.1 µM,[1],49%
same,inhibition at 0.1 µM,[2],46%
same,inhibition at 0.1 µM,[3],24%
same,inhibition at 1 µM,[4],8%
same,inhibition at 0.1 µM,[5],50%
"Cc1ccc2c(c1)c1c(n2-c2cccc(-c3cc4ccccc4s3)c2)CCN(C)C1 [Compound 51, 5-(3-(benzo[b]thiophen-2-yl)phenyl)-2,8-dimethyl-2,3,4,5-tetrahydro-1H-pyrido[4,3-b]indole]",inhibition at 0.1 µM,[1],15%
same,inhibition at 0.1 µM,[2],-9%
same,inhibition at 0.1 µM,[3],-6%
same,inhibition at 1 µM,[4],36%
same,inhibition at 0.1 µM,[5],55%
Cc1ccc2c(c1)c1c(n2-c2cscc2-c2cncc3ccccc23)CCN(C)C1 [Compound 34],inhibition at 0.1 µM,[1],11%
same,inhibition at 0.1 µM,[2],5%
same,inhibition at 0.1 µM,[3],4%
same,inhibition at 1 µM,[4],6%
same,inhibition at 0.1 µM,[5],54%
Cc1ccc2c(c1)c1c(n2-c2cscc2-c2cccc3[nH]ncc23)CCN(C)C1 [Compound 41],inhibition at 0.1 µM,[1],36%
same,inhibition at 0.1 µM,[2],55%
same,inhibition at 0.1 µM,[3],59%
same,inhibition at 1 µM,[4],28%
same,inhibition at 0.1 µM,[5],91%
"Cc1ccc2c(c1)c1c(n2-c2ccc(-c3cccc4ccccc34)cn2)CCN(C)C1 [Compound No. 141, 2,8-dimethyl-5-(5-(naphthalen-1-yl)pyridin-2-yl)-2,3,4,5-tetrahydro-1H-pyrido[4,3-b]indole]",inhibition at 0.1 µM,[1],0%
same,inhibition at 0.1 µM,[2],16%
same,inhibition at 0.1 µM,[3],33%
same,inhibition at 1 µM,[4],11%
same,inhibition at 0.1 µM,[5],92%
Cc1ccc2c(c1)c1c(n2-c2cscc2-c2sccc2C)CCN(C)C1 [Compound 39],inhibition at 0.1 µM,[1],65%
same,inhibition at 0.1 µM,[2],50%
same,inhibition at 0.1 µM,[3],31%
same,inhibition at 1 µM,[4],58%
same,inhibition at 0.1 µM,[5],93%
CNC(=O)c1ccc(-c2cscc2-n2c3c(c4cc(C)ccc42)CN(C)CC3)cc1 [Compound No. 155],inhibition at 0.1 µM,[1],-6%
same,inhibition at 0.1 µM,[2],0%
same,inhibition at 0.1 µM,[3],80%
same,inhibition at 1 µM,[4],10%
same,inhibition at 0.1 µM,[5],31%
"CC(=O)Nc1ccc(-c2ccccc2-n2c3c(c4cc(C)ccc42)CN(C)CC3)cn1 [Compound No. 83, N-(5-(2-(2,8-dimethyl-3,4-dihydro-1H-pyrido[4,3-b]indol-5(2H)-yl)phenyl)pyridin-2-yl)acetamide]",inhibition at 0.1 µM,[1],3%
same,inhibition at 0.1 µM,[2],-5%
same,inhibition at 0.1 µM,[3],23%
same,inhibition at 1 µM,[4],22%
same,inhibition at 0.1 µM,[5],15%
CNC(=O)c1ccc(-c2cscc2-n2c3c(c4cc(C)ccc42)CN(C)CC3)cn1 [Compound No. 73],inhibition at 0.1 µM,[1],21%
same,inhibition at 0.1 µM,[2],2%
same,inhibition at 0.1 µM,[3],71%
same,inhibition at 1 µM,[4],20%
same,inhibition at 0.1 µM,[5],43%
Cc1ccc2c(c1)c1c(n2-c2cscc2-c2ccc3cnccc3c2)CCN(C)C1 [Compound No. 68],inhibition at 0.1 µM,[1],18%
same,inhibition at 0.1 µM,[2],29%
same,inhibition at 0.1 µM,[3],71%
same,inhibition at 1 µM,[4],30%
same,inhibition at 0.1 µM,[5],10%
"CC(=O)Nc1ccc(-c2ccc(-n3c4c(c5cc(C)ccc53)CN(C)CC4)nc2)cn1 [Compound No. 139, N-(6′-(2,8-dimethyl-3,4-dihydro-1H-pyrido[4,3-b]indol-5(2H)-yl)-3,3′-bipyridin-6-yl)acetamide]",inhibition at 0.1 µM,[1],-1%
same,inhibition at 0.1 µM,[2],2%
same,inhibition at 0.1 µM,[3],22%
same,inhibition at 1 µM,[4],4%
same,inhibition at 0.1 µM,[5],65%
"Cc1ccc2c(c1)c1c(n2-c2ccc3nc(C)ccc3c2)CCN(C)C1 [Compound No. 157, 2,8-dimethyl-5-(2-methyl-quinolin-6-yl)-2,3,4,5-tetrahydro-1H-pyrido[4,3-b]indole]",inhibition at 0.1 µM,[1],22%
same,inhibition at 0.1 µM,[2],-1%
same,inhibition at 0.1 µM,[3],7%
same,inhibition at 1 µM,[4],-17%
same,inhibition at 0.1 µM,[5],88%
"Cc1csc(-c2cccc(-n3c4c(c5cc(C)ccc53)CN(C)CC4)c2)c1 [Compound No. 63, 2,8-dimethyl-5-(3-(4-methylthiophen-2-yl)phenyl)-2,3,4,5-tetrahydro-1H-pyrido[4,3-b]indole]",inhibition at 0.1 µM,[1],5%
same,inhibition at 0.1 µM,[2],10%
same,inhibition at 0.1 µM,[3],-8%
same,inhibition at 1 µM,[4],31%
same,inhibition at 0.1 µM,[5],77%
Cc1ccc2c(c1)c1c(n2-c2cscc2-c2ccc(S(C)(=O)=O)cc2)CCN(C)C1 [Compound No. 76],inhibition at 0.1 µM,[1],14%
same,inhibition at 0.1 µM,[2],79%
same,inhibition at 0.1 µM,[3],82%
same,inhibition at 1 µM,[4],19%
same,inhibition at 0.1 µM,[5],24%
"Cc1ccc2c(c1)c1c(n2-c2ccccc2-c2ccc(C)s2)CCN(C)C1 [Compound No. 81, 2,8-dimethyl-5-(2-(5-methylthiophen-2-yl)phenyl)-2,3,4,5-tetrahydro-1H-pyrido[4,3-b]indole]",inhibition at 0.1 µM,[1],44%
same,inhibition at 0.1 µM,[2],41%
same,inhibition at 0.1 µM,[3],34%
same,inhibition at 1 µM,[4],57%
same,inhibition at 0.1 µM,[5],89%
"Cc1ccc2c(c1)c1c(n2-c2ccc(-c3sccc3C)cn2)CCN(C)C1 [Compound No. 148, 2,8-dimethyl-5-(5-(3-methylthiophen-2-yl)pyridin-2-yl)-2,3,4,5-tetrahydro-1H-pyrido[4,3-b]indole]",inhibition at 0.1 µM,[1],5%
same,inhibition at 0.1 µM,[2],4%
same,inhibition at 0.1 µM,[3],20%
same,inhibition at 1 µM,[4],5%
same,inhibition at 0.1 µM,[5],88%
Cc1ccc2c(c1)c1c(n2-c2ccc3cnccc3c2)CCN(C)C1 [Compound 38],inhibition at 0.1 µM,[1],73%
same,inhibition at 0.1 µM,[2],11%
same,inhibition at 0.1 µM,[3],36%
same,inhibition at 1 µM,[4],-4%
same,inhibition at 0.1 µM,[5],88%
